≈ marks a conversion by molar mass, not a printed value.
Experiments:
[1] = tested on: Staphylococcus aureus UC 1128; assay: serial dilution liquid medium MIC, Staphylococcus aureus UC 1128 pen-resistant; assay type: cell-based; details: UC1128; Staphylococcus aureus UC 1128 pen-resistant; 24 hours at 37° C.; read-out: minimum inhibiting concentration (MIC)
Description: (§1) The method was a serial dilution of liquid medium test wherein a series of tubes were prepared containing the same amount of sterile nutritive medium and increasing amounts of the test product was distributed in each tube. The tubes were then seeded with a bacterial strain and incubated for 24 hours in an oven at 37° C. The degree of inhibition was determined by transillumination to determine the minimum inhibiting concentration (MIC) express in μg/ml and the results are reported in the following Tables.

[2] = tested on: Staphylococcus aureus exp. n° 54 146; assay: serial dilution liquid medium MIC, Staphylococcus aureus exp. n° 54 146; assay type: cell-based; details: Staphylococcus aureus exp. 54 146; 24 hours at 37° C.; read-out: minimum inhibiting concentration (MIC)
Description: as §1

[3] = tested on: Streptococcus pyogenes A 561; assay: serial dilution liquid medium MIC, Streptococcus pyogenes A 561; assay type: cell-based; details: A561, 24 hours at 37° C., read-out: minimum inhibiting concentration (MIC)
Description: as §1

[4] = tested on: Streptococcus faecalis 5432; assay: serial dilution liquid medium MIC, Streptococcus faecalis 5432; assay type: cell-based; details: Enterococcus faecalis, 24 hours at 37° C., read-out: minimum inhibiting concentration (MIC)
Description: as §1

[5] = tested on: Streptococcus faecalis 99 F 74; assay: serial dilution liquid medium MIC, Streptococcus faecalis 99 F 74; assay type: cell-based; details: Enterococcus faecalis, 99F74, 24 hours at 37° C., read-out: minimum inhibiting concentration (MIC)
Description: as §1

[6] = tested on: Staphylococcus aureus 1061; assay: serial dilution liquid medium MIC, Staphylococcus aureus 1061 pen-sensibles; assay type: cell-based; details: 24 hours at 37° C., read-out: minimum inhibiting concentration (MIC)
Description: as §1

[7] = tested on: Staphylococcus aureus No. 54,146; assay: In vivo activity in mice experimentally infected with Staphylococcus aureus No. 54,146; details: groups of 10 mice
Description: The test was effected with the compounds of the invention and erythromycin as a reference on groups of 10 mice weighing about 21 g experimentally infected with Staphylococcus aureus No. 54,146 by intraperitoneal administration of 0.5 ml of a 22 hour culture of the said organism in bouillon with a pH of 7 diluted to 1/6 with physiological water. The test compounds were orally administrated to the mice 1,5 and 24 hours after the infection and the mortality on the 8th day was determined.

[8] = tested on: Streptococcus faecalis 5435; assay: serial dilution liquid medium MIC, Streptococcus faecalis 5435; assay type: cell-based; details: Enterococcus faecalis, 24 hours at 37° C., read-out: minimum inhibiting concentration (MIC)
Description: as §1

[9] = dose 0,5mg oral, 1,5 and 24 hours after infection
[10] = dose 0,25mg oral, 1,5 and 24 hours after infection
[11] = dose 0,75mg oral, 1,5 and 24 hours after infection

| Compound | MIC [1] | MIC [2] | MIC [3] | MIC [4] | MIC [5] | MIC [6] | No. of mice living on the 8th day [7, 9] | No. of mice living on the 8th day [7, 10] | No. of mice living on the 8th day [7, 11] | MIC [8] | No. of mice living on the 8th day ([7]; dose 1mg oral, 1,5 and 24 hours after infection) | No. of mice living on the 8th day ([7]; dose 2mg oral, 1,5 and 24 hours after infection) | No. of mice living on the 8th day ([7]; dose 1,5mg oral, 1,5 and 24 hours after infection) |
| --- | --- | --- | --- | --- | --- | --- | --- | --- | --- | --- | --- | --- | --- |
| CC[C@H]1OC(=O)[C@H](C)[C@@H](O[C@H]2C[C@@](C)(OC)[C@@H](O)[C@H](C)O2)[C@H](C)[C@@H](O[C@@H]2O[C@H](C)C[C@H](N(C)C)[C@H]2O)[C@](C)(O)C[C@@H](C)C(=NOCOCCCl)[C@H](C)[C@@H](O)[C@]1(C)O [Example 21, 9-[0-{(2-chloroethoxy)-methyl}-oxime] of erythromycin] | 0.2 µg/mL (≈ 0.238 µM) | 0.2 µg/mL (≈ 0.238 µM) | 0.02 µg/mL (≈ 0.0238 µM) | 0.1 µg/mL (≈ 0.119 µM) | 0.1 µg/mL (≈ 0.119 µM) | 0.2 µg/mL (≈ 0.238 µM) | 6 mice | 0 mice | 10 mice |  |  |  |  |
| CC[C@H]1OC(=O)[C@H](C)[C@@H](O[C@H]2C[C@@](C)(OC)[C@@H](O)[C@H](C)O2)[C@H](C)[C@@H](O[C@@H]2O[C@H](C)C[C@H](N(C)C)[C@H]2O)[C@](C)(O)C[C@@H](C)C(=NOCCN(CC)CC)[C@H](C)[C@@H](O)[C@]1(C)O [Example 31, 9-[0-(2-diethylaminoethyl)-oxime] of erythromycin] | 1 µg/mL (≈ 1.18 µM) | 1 µg/mL (≈ 1.18 µM) | 0.02 µg/mL (≈ 0.0236 µM) | 0.1 µg/mL (≈ 0.118 µM) | 0.1 µg/mL (≈ 0.118 µM) | 0.5 µg/mL (≈ 0.59 µM) | 10 mice | 4 mice |  |  |  |  |  |
| CC[C@H]1OC(=O)[C@H](C)[C@@H](O[C@H]2C[C@@](C)(OC)[C@@H](O)[C@H](C)O2)[C@H](C)[C@@H](O[C@@H]2O[C@H](C)C[C@H](N(C)C)[C@H]2O)[C@](C)(O)C[C@@H](C)C(=NOCOCCN)[C@H](C)[C@@H](O)[C@]1(C)O [Example 24, 9-[0-{(2-aminoethoxy}-methyl)-oxime] of erythromycin] | 0.4 µg/mL (≈ 0.487 µM) | 0.4 µg/mL (≈ 0.487 µM) | ≤ 0.01 µg/mL | 0.05 µg/mL (≈ 0.0608 µM) | 0.1 µg/mL (≈ 0.122 µM) | 0.1 µg/mL (≈ 0.122 µM) |  |  |  | 0.2 µg/mL (≈ 0.243 µM) |  |  |  |
| CC[C@H]1OC(=O)[C@H](C)[C@@H](O[C@H]2C[C@@](C)(OC)[C@@H](O)[C@H](C)O2)[C@H](C)[C@@H](O[C@@H]2O[C@H](C)C[C@H](N(C)C)[C@H]2O)[C@](C)(O)C[C@@H](C)C(=NOCCN2CCCC2)[C@H](C)[C@@H](O)[C@]1(C)O [Example 32, 9-[0-(2-{pyrrolidin-1-yl}-ethyl)-oxime] of erythromycin] | 1 µg/mL (≈ 1.18 µM) | 0.6 µg/mL (≈ 0.709 µM) | ≤ 0.01 µg/mL | 0.05 µg/mL (≈ 0.0591 µM) | 0.1 µg/mL (≈ 0.118 µM) | 0.4 µg/mL (≈ 0.473 µM) |  |  |  | 0.2 µg/mL (≈ 0.236 µM) |  |  |  |
| CC[C@H]1OC(=O)[C@H](C)[C@@H](O[C@H]2C[C@@](C)(OC)[C@@H](O)[C@H](C)O2)[C@H](C)[C@@H](O[C@@H]2O[C@H](C)C[C@H](N(C)C)[C@H]2O)[C@](C)(O)C[C@@H](C)C(=NOCCN2CCN(C)CC2)[C@H](C)[C@@H](O)[C@]1(C)O [Example 43, 9-[O-(2-{4-methyl-piperazino-1-yl}-ethyl)-oxime] of erythromycin] | 2 µg/mL (≈ 2.29 µM) | 1 µg/mL (≈ 1.14 µM) | ≤ 0.01 µg/mL | 0.2 µg/mL (≈ 0.229 µM) | 0.05 µg/mL (≈ 0.0571 µM) | 1 µg/mL (≈ 1.14 µM) |  |  |  | 0.4 µg/mL (≈ 0.457 µM) |  |  |  |
| CC[C@H]1OC(=O)[C@H](C)[C@@H](O[C@H]2C[C@@](C)(OC)[C@@H](O)[C@H](C)O2)[C@H](C)[C@@H](O[C@@H]2O[C@H](C)C[C@H](N(C)C)[C@H]2O)[C@](C)(O)C[C@@H](C)C(=O)[C@H](C)[C@@H](O)[C@]1(C)O [Erythromycin, erythromycin] |  |  |  |  |  |  |  |  | 5 mice |  | 9 mice | 10 mice | 9 mice |
| CC[C@H]1OC(=O)[C@H](C)[C@@H](O[C@H]2C[C@@](C)(OC)[C@@H](O)[C@H](C)O2)[C@H](C)[C@@H](O[C@@H]2O[C@H](C)C[C@H](N(C)C)[C@H]2O)[C@](C)(O)C[C@@H](C)C(=NOCSc2ccccc2)[C@H](C)[C@@H](O)[C@]1(C)O [Example 28, 9-[0-(phenylthiomethyl)-oxime] of erythromycin] | 0.6 µg/mL (≈ 0.689 µM) | 0.6 µg/mL (≈ 0.689 µM) | 0.05 µg/mL (≈ 0.0574 µM) | 0.2 µg/mL (≈ 0.23 µM) | 0.2 µg/mL (≈ 0.23 µM) | 0.4 µg/mL (≈ 0.459 µM) |  |  |  | 0.4 µg/mL (≈ 0.459 µM) |  |  |  |
| CC[C@H]1OC(=O)[C@H](C)[C@@H](O[C@H]2C[C@@](C)(OC)[C@@H](O)[C@H](C)O2)[C@H](C)[C@@H](O[C@@H]2O[C@H](C)C[C@H](N(C)C)[C@H]2O)[C@](C)(O)C[C@@H](C)C(=NOCCC#N)[C@H](C)[C@@H](O)[C@]1(C)O [Example 14, 9-[0-(2-cyanoethyl)-oxime] of erythromycin] | 0.4 µg/mL (≈ 0.499 µM) | 0.4 µg/mL (≈ 0.499 µM) | 0.02 µg/mL (≈ 0.0249 µM) | 0.1 µg/mL (≈ 0.125 µM) | 0.05 µg/mL (≈ 0.0623 µM) | 0.2 µg/mL (≈ 0.249 µM) |  |  |  | 0.4 µg/mL (≈ 0.499 µM) |  |  |  |
| CC[C@H]1OC(=O)[C@H](C)[C@@H](O[C@H]2C[C@@](C)(OC)[C@@H](O)[C@H](C)O2)[C@H](C)[C@@H](O[C@@H]2O[C@H](C)C[C@H](N(C)C)[C@H]2O)[C@](C)(O)C[C@@H](C)C(=NOCCNC(C)C)[C@H](C)[C@@H](O)[C@]1(C)O [Example 39, 9-[O-(2-isopropylamino)-oxime] of erythromycin] | 0.6 µg/mL (≈ 0.719 µM) | 0.4 µg/mL (≈ 0.48 µM) | 0.01 µg/mL (≈ 0.012 µM) | 0.05 µg/mL (≈ 0.0599 µM) | ≤ 0.02 µg/mL | 0.3 µg/mL (≈ 0.36 µM) |  |  |  | 0.1 µg/mL (≈ 0.12 µM) |  |  |  |
| CC[C@H]1OC(=O)[C@H](C)[C@@H](O[C@H]2C[C@@](C)(OC)[C@@H](O)[C@H](C)O2)[C@H](C)[C@@H](O[C@@H]2O[C@H](C)C[C@H](N(C)C)[C@H]2O)[C@](C)(O)C[C@@H](C)C(=NOCCN2CCCCC2)[C@H](C)[C@@H](O)[C@]1(C)O [Example 34, 9-[O-(2{-piperidin-1-yl}-ethyl)-oxime] of erythromycin] | 0.6 µg/mL (≈ 0.698 µM) | 0.6 µg/mL (≈ 0.698 µM) | ≤ 0.01 µg/mL | 0.1 µg/mL (≈ 0.116 µM) | 0.05 µg/mL (≈ 0.0581 µM) | 0.4 µg/mL (≈ 0.465 µM) |  |  |  | 0.2 µg/mL (≈ 0.233 µM) |  |  |  |
| CC[C@H]1OC(=O)[C@H](C)[C@@H](O[C@H]2C[C@@](C)(OC)[C@@H](O)[C@H](C)O2)[C@H](C)[C@@H](O[C@@H]2O[C@H](C)C[C@H](N(C)C)[C@H]2O)[C@](C)(O)C[C@@H](C)C(=NOCOCCN2CCOCC2)[C@H](C)[C@@H](O)[C@]1(C)O [Example 26, 9-[0-{(2-(morpholin-4-yl)-ethoxy}-methyl)-oxime] of erythromycin] | 0.1 µg/mL (≈ 0.112 µM) | 0.6 µg/mL (≈ 0.673 µM) | 0.1 µg/mL (≈ 0.112 µM) | 0.2 µg/mL (≈ 0.224 µM) | 0.2 µg/mL (≈ 0.224 µM) | 0.6 µg/mL (≈ 0.673 µM) |  |  |  | 1 µg/mL (≈ 1.12 µM) |  |  |  |
| CC[C@H]1OC(=O)[C@H](C)[C@@H](O[C@H]2C[C@@](C)(OC)[C@@H](O)[C@H](C)O2)[C@H](C)[C@@H](O[C@@H]2O[C@H](C)C[C@H](N(C)C)[C@H]2O)[C@](C)(O)C[C@@H](C)C(=NOCCN)[C@H](C)[C@@H](O)[C@]1(C)O [Example 45, 9-[O-(2-aminoethyl)-oxime] of erythromycin] | 1 µg/mL (≈ 1.26 µM) | 1 µg/mL (≈ 1.26 µM) | ≤ 0.01 µg/mL | 0.4 µg/mL (≈ 0.505 µM) | 0.1 µg/mL (≈ 0.126 µM) | 0.6 µg/mL (≈ 0.758 µM) |  |  |  | 0.2 µg/mL (≈ 0.253 µM) |  |  |  |
| CC[C@H]1OC(=O)[C@H](C)[C@@H](O[C@H]2C[C@@](C)(OC)[C@@H](O)[C@H](C)O2)[C@H](C)[C@@H](O[C@@H]2O[C@H](C)C[C@H](N(C)C)[C@H]2O)[C@](C)(O)C[C@@H](C)C(=NOCCN(C(C)C)C(C)C)[C@H](C)[C@@H](O)[C@]1(C)O [Example 41, 9-[O-(2-disopropylamino-ethyl)-oxime] of erythromycin] | 1 µg/mL (≈ 1.14 µM) | 1 µg/mL (≈ 1.14 µM) | 0.05 µg/mL (≈ 0.0571 µM) | 0.2 µg/mL (≈ 0.228 µM) | 0.2 µg/mL (≈ 0.228 µM) | 0.5 µg/mL (≈ 0.571 µM) | 10 mice | 9 mice |  |  |  |  |  |

Reference: patent US4349545A, “Novel erythromycin a derivatives” (Roussel Uclaf, priority 1980, dated 1982)
